# Results taken from patent US9969752B2, “Inhibitors of HIF prolyl hydroxylase” (MERCK SHARP & DOHME CORP., priority 2014, dated 2018).
# Molecular target: T1, Human HIF-PHD2 (Homo sapiens, UniProt Q9GZT9)
# T1 construct: FLAG-tagged full length PHD2 expressed in and purified from baculovirus-infected Sf9 cells; FLAG; made in house; host or cells: baculovirus-infected Sf9 cells
# Experiment: Inhibition of the hydroxylation of a HIF peptide by PHD2 (time resolved fluorescence, 384-well)
# Format: biochemical
# Conditions: FLAG-tagged full length PHD2; 0.2 μM 2-oxoglutarate, 0.5 μM HIF-1α peptide; 45 minutes at room temperature; read-out: Human HIF-PHD2 IC50
# T1 sequence (Q9GZT9 whole entry): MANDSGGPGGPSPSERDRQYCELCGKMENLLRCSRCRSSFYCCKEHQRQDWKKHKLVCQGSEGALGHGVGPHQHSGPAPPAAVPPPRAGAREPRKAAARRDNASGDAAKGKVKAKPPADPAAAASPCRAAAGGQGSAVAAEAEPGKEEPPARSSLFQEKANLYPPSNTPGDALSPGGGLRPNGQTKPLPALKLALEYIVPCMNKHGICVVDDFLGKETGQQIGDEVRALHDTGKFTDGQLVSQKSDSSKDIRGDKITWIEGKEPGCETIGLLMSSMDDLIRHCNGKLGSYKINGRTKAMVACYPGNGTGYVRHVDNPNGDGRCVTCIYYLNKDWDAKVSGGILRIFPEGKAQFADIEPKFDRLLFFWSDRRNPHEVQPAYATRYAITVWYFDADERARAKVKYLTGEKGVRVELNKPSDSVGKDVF
row,IC50 [nM],Compound
1,2,"N#Cc1ccc(C2Cn3c(=O)c(C(=O)NCC(=O)O)c(O)c4ccc(C(F)(F)F)c(c43)O2)cc1 (single isomer, unassigned) [Example 77, 2-(2-(4-cyanophenyl)-7-hydroxy-5-oxo-10-(trifluoromethyl)-3,5-dihydro-2H-[1,4]oxazino[2,3,4-ij]quinoline-6-carboxamido)acetic acid]"
2,8.1,"O=C(O)CNC(=O)c1c(O)c2c(Br)ccc3c2n(c1=O)C(Cc1ccc(C(F)(F)F)cc1)CO3 (stereo not drawn) [Example 26, 2-(8-bromo-7-hydroxy-5-oxo-3-(4-(trifluoromethyl)benzyl)-3,5-dihydro-2H-[1,4]oxazino[2,3,4-ij]quinoline-6-carboxamido)acetic acid]"
3,1,"O=C(O)CNC(=O)c1c(O)c2cccc3c2n(c1=O)CC(c1ccc(C(F)(F)F)cc1)[S+]3[O-] (stereo not drawn) [Example 59, 2-(7-Hydroxy-1-oxido-5-oxo-2-(4-(trifluoromethyl)phenyl)-3,5-dihydro-2H-[1,4]thiazino[2,3,4-ij]quinoline-6-carboxamido)acetic acid]"
4,15.8,"O=C(O)CNC(=O)c1c(O)c2cccc3c2n(c1=O)C(c1ccc(C(F)(F)F)cc1)CO3 (racemic) [Example 1, 2-(7-Hydroxy-5-oxo-3-(4-(trifluoromethyl)phenyl)-3,5-dihydro-2H-[1,4]oxazino[2,3,4-ij]quinoline-6-carboxamido)acetic acid]"
5,2.6,"N#Cc1cc2c3c(c1)c(O)c(C(=O)NCC(=O)O)c(=O)n3CCC2 [Example 48, 2-(9-Cyano-1-hydroxy-3-oxo-3,5,6,7-tetrahydropyrido[3,2,1-ij]quinoline-2-carboxamido)acetic acid]"
6,1.4,"CS(=O)(=O)c1ccc(C2Cn3c(=O)c(C(=O)NCC(=O)O)c(O)c4ccc(C(F)(F)F)c(c43)O2)cc1 (stereo not drawn) [Example 76, 2-(7-Hydroxy-2-(4-(methylsulfonyl)phenyl)-5-oxo-10-(trifluoromethyl)-3,5-dihydro-2H-[1,4]oxazino[2,3,4-ij]quinoline-6-carboxamido)acetic acid]"
7,15,"O=C(O)CNC(=O)c1c(O)c2cccc3c2n(c1=O)C(Cc1ccc(Cl)cc1)CC3 (racemic) [Example 131, 2-(5-(4-Chlorobenzyl)-1-hydroxy-3-oxo-3,5,6,7-tetrahydropyrido[3,2,1-ij]quinoline-2-carboxamido)acetic acid]"
8,18,"O=C(O)CNC(=O)c1c(O)c2cccc3c2n(c1=O)C(c1ccccc1)CC3 (single isomer, unassigned) [Example 130, 2-(1-Hydroxy-3-oxo-5-phenyl-3,5,6,7-tetrahydropyrido[3,2,1-ij]quinoline-2-carboxamido)acetic acid]"
9,3.6,"O=C(O)CNC(=O)c1c(O)c2cccc3c2n(c1=O)C(c1ccc(C(F)(F)F)nc1)CN3 (stereo not drawn) [Example 127, 2-(7-Hydroxy-5-oxo-3-(6-(trifluoromethyl)pyridin-3-yl)-1,2,3,5-tetrahydropyrido[1,2,3-de]quinoxaline-6-carboxamido)acetic acid]"
10,3,"CN1c2cc(C#N)cc3c(O)c(C(=O)NCC(=O)O)c(=O)n(c23)CC1c1ccc(C(F)(F)F)cc1 (stereo not drawn) [Example 96, 2-(9-Cyano-7-hydroxy-1-methyl-5-oxo-2-(4-(trifluoromethyl)phenyl)-1,2,3,5-tetrahydropyrido[1,2,3-de]quinoxaline-6-carboxamido)acetic acid]"
11,33.7,"O=C(O)CNC(=O)c1c(O)c2cccc3c2n(c1=O)C(c1ccc(C(F)(F)F)cc1)CO3 (single isomer, unassigned) [Example 1a, 2-(7-Hydroxy-5-oxo-3-(4-(trifluoromethyl)phenyl)-3,5-dihydro-2H-[1,4]oxazino[2,3,4-ij]quinoline-6-carboxamido)acetic acid]"
12,6.9,"CN1CC(c2ccc(C(F)(F)F)nc2)n2c(=O)c(C(=O)NCC(=O)O)c(O)c3cccc1c32 (stereo not drawn) [Example 128, 2-(7-Hydroxy-1-methyl-5-oxo-3-(6-(trifluoromethyl)pyridin-3-yl)-1,2,3,5-tetrahydropyrido[1,2,3-de]quinoxaline-6-carboxamido)acetic acid]"
13,74,"O=C(O)CNC(=O)c1c(O)c2cccc3c2n(c1=O)C(c1ccccc1)C3 (racemic) [Example 129, 2-(6-Hydroxy-4-oxo-2-phenyl-2,4-dihydro-1H-pyrrolo[3,2,1-ij]quinoline-5-carboxamido)acetic acid]"
14,12,"Cc1ccc2c(O)c(C(=O)NCC(=O)O)c(=O)n3c2c1OCC3 [Example 39, 2-(7-Hydroxy-10-methyl-5-oxo-3,5-dihydro-2H-[1,4]oxazino[2,3,4-ij]quinoline-6-carboxamido)acetic acid]"
15,19,"CS(=O)(=O)c1ccc2c3c1c(O)c(C(=O)NCC(=O)O)c(=O)n3CC(c1ccc(C(F)(F)F)cc1)O2 (stereo not drawn) [Example 12, 2-(7-Hydroxy-8-(methylsulfonyl)-5-oxo-2-(4-(trifluoromethyl)phenyl)-3,5-dihydro-2H-[1,4]oxazino[2,3,4-ij]quinoline-6-carboxamido)acetic acid]"
16,1.1,"N#Cc1ccc(C2Cn3c(=O)c(C(=O)NCC(=O)O)c(O)c4c(C#N)ccc(c43)O2)cc1 (stereo not drawn) [Example 54, 2-(8-Cyano-2-(4-cyanophenyl)-7-hydroxy-5-oxo-3,5-dihydro-2H-[1,4]oxazino[2,3,4-ij]quinoline-6-carboxamido)acetic acid]"
17,1,"CS(=O)(=O)c1ccc2c(O)c(C(=O)NCC(=O)O)c(=O)n3c2c1OCC3Cc1ccc(C(F)(F)F)cc1 (stereo not drawn) [Example 31, 2-(7-Hydroxy-10-(methylsulfonyl)-5-oxo-3-(4-(trifluoromethyl)benzyl)-3,5-dihydro-2H-[1,4]oxazino[2,3,4-ij]quinoline-6-carboxamido)acetic acid]"

# Same assay, conditions: FLAG-tagged full length PHD2; 0.2 μM 2-oxoglutarate, 0.5 μM HIF-1α peptide; 45 minutes at room temperature; read-out: MS m/z (M + 1)+ and human HIF-PHD2 IC50
row,IC50 [nM],Compound
1,16,"O=C(O)CNC(=O)c1c(O)c2c(Br)ccc3c2n(c1=O)C(c1ccc(C(F)(F)F)cc1)CO3 (stereo not drawn) [Example 169, 2-(8-bromo-7-hydroxy-5-oxo-3-(4-(trifluoromethyl)phenyl)-3,5-dihydro-2H-[1,4]oxazino[2,3,4-ij]quinoline-6-carboxamido)acetic acid]"
2,18,"COc1ncccc1-c1ccc(C2COc3cccc4c(O)c(C(=O)NCC(=O)O)c(=O)n2c34)cc1 (stereo not drawn) [Example 147, N-({7-hydroxy-3-[4-(2-methoxypyridin-3-yl)phenyl]-5-oxo-2,3-dihydro-5H-[1,4]oxazino[2,3,4-ij]quinolin-6-yl}carbonyl)glycine]"
3,1.6,"O=C(O)CNC(=O)c1c(O)c2ccc(-c3ccccc3)c3c2n(c1=O)CCO3 [Example 40, 2-(7-hydroxy-5-oxo-10-phenyl-3,5-dihydro-2H-[1,4]oxazino[2,3,4-ij]quinoline-6-carboxamido)acetic acid]"
4,5.7,"O=C(O)CNC(=O)c1c(O)c2cccc3c2n(c1=O)C(c1ccc(-c2ccncc2)cc1)CO3 (stereo not drawn) [Example 148, N-{[7-hydroxy-5-oxo-3-(4-pyridin-4-ylphenyl)-2,3-dihydro-5H-[1,4]oxazino[2,3,4-ij]quinolin-6-yl]carbonyl}glycine]"
5,9.2,"O=C(O)CNC(=O)c1c(O)c2cccc3c2n(c1=O)C(c1ccc(-c2cccnc2)cc1)CO3 (stereo not drawn) [Example 151, N-{[7-hydroxy-5-oxo-3-(4-pyridin-3-ylphenyl)-2,3-dihydro-5H-[1,4]oxazino[2,3,4-ij]quinolin-6-yl]carbonyl}glycine]"
6,15,"O=C(O)CNC(=O)c1c(O)c2c(F)ccc3c2n(c1=O)C(c1ccc(C(F)(F)F)cc1)CO3 (stereo not drawn) [Example 162, 2-(8-fluoro-7-hydroxy-5-oxo-3-(4-(trifluoromethyl)phenyl)-3,5-dihydro-2H-[1,4]oxazino[2,3,4-ij]quinoline-6-carboxamido)acetic acid]"
7,2.8,"O=C(O)CNC(=O)c1c(O)c2c(F)cc(F)c3c2n(c1=O)C(c1cncs1)CO3 (stereo not drawn) [Example 175, 2-(8,10-difluoro-7-hydroxy-5-oxo-3-(thiazol-5-yl)-3,5-dihydro-2H-[1,4]oxazino[2,3,4-ij]quinoline-6-carboxamido)acetic acid]"
8,14,"O=C(O)CNC(=O)c1c(O)c2cccc3c2n(c1=O)C(c1cnco1)CO3 (stereo not drawn) [Example 173, 2-(7-hydroxy-3-(oxazol-5-yl)-5-oxo-3,5-dihydro-2H-[1,4]oxazino[2,3,4-ij]quinoline-6-carboxamido)acetic acid]"
9,5.1,"O=C(O)CNC(=O)c1c(O)c2c(Cl)ccc3c2n(c1=O)CC(c1ccc(C(F)(F)F)cc1)O3 (single isomer, unassigned) [Example 71, 2-(8-chloro-7-hydroxy-5-oxo-2-(4-(trifluoromethyl)phenyl)-3,5-dihydro-2H-[1,4]oxazino[2,3,4-ij]quinoline-6-carboxamido)acetic acid]"
10,1.4,"N#Cc1ccc2c(O)c(C(=O)NCC(=O)O)c(=O)n3c2c1OCC3c1cncs1 (stereo not drawn) [Example 182, ammonium 2-(10-cyano-7-hydroxy-5-oxo-3-(thiazol-5-yl)-3,5-dihydro-2H-[1,4]oxazino[2,3,4-ij]quinoline-6-carboxamido)acetate]"
11,5,"O=C(O)CNC(=O)c1c(O)c2ccc(Br)c3c2n(c1=O)C(c1cscn1)CO3 (stereo not drawn) [Example 170, 2-(10-bromo-7-hydroxy-5-oxo-3-(thiazol-4-yl)-3,5-dihydro-2H-[1,4]oxazino[2,3,4-ij]quinoline-6-carboxamido)acetic acid]"
12,11,"O=C(O)CNC(=O)c1c(O)c2cccc3c2n(c1=O)C(c1ccc(-c2ccn[nH]2)cc1)CO3 (stereo not drawn) [Example 152, 2-(3-(4-(1H-pyrazol-5-yl)phenyl)-7-hydroxy-5-oxo-3,5-dihydro-2H-[1,4]oxazino[2,3,4-ij]quinoline-6-carboxamido)acetic acid]"

# Same assay, conditions: Human HIF-PHD2 IC50, FLAG-tagged full length PHD2; 0.2 μM 2-oxoglutarate, 0.5 μM HIF-1α peptide; 45 minutes at room temperature
row,IC50 [nM],Compound
1,99,"O=C(O)CNC(=O)c1c(O)c2cc(Br)cc3c2n(c1=O)CCC3 [Example 47, 2-(9-Bromo-1-hydroxy-3-oxo-3,5,6,7-tetrahydropyrido[3,2,1-ij]quinoline-2-carboxamido)acetic acid]"
